Experimental data as given in US7649022B2, “Bioabsorbable elastomeric polymer networks, cross-linkers and methods of use” (priority 2007, dated 2010).

Test: Properties and self-adherence of films of PEA 4-Phe-4 mixed with EAC-2 cross-linkers, dry and after 24 h in water
Assay type: physicochemical
Design: key to Self-adherence: (—) means: no self-adherence observed
Settings: for Self-adherence: folded film in water 24 hours; for Wet: pre-soaked in water at room temperature 24 hours; for Dry: dry film
Excerpt: At the first stage, this Example addresses the question of whether invention cross-linking agents can be used as plasticizers without causing the composition to undesirably adhere to the surface of other materials (for example, steel, and other medical device surfaces).

Structure (SMILES) | Self-adherence (PEA 4-Phe-4/EAC-2 40/60 w/w) | Self-adherence (PEA 4-Phe-4/EAC-2 60/40 w/w) | Wet (PEA 4-Phe-4/EAC-2 60/40 w/w) | Dry (PEA 4-Phe-4/EAC-2 80/20 w/w) | Self-adherence (PEA 4-Phe-4/EAC-2 80/20 w/w) | Dry (PEA 4-Phe-4/EAC-2 60/40 w/w) | Dry (PEA 4-Phe-4/EAC-2 40/60 w/w)
C=CC(=O)NC(CC(C)C)C(=O)OCCCCCCOC(=O)C(CC(C)C)NC(=O)C=C (stereo not shown) [Leu-6-AA] | — | — | Brittle | Hard | — |  | 
CC(C)CC(NC(=O)C=Cc1ccccc1)C(=O)OCCCCCCOC(=O)C(CC(C)C)NC(=O)C=Cc1ccccc1 (stereo not shown) [Leu-6-CA] | — | — |  |  | — | Elastic | 
C=C(C)C(=O)NC(CC(C)C)C(=O)OCCCCCCOC(=O)C(CC(C)C)NC(=O)C(=C)C (stereo not shown) [Leu-6-MA] | — | — |  |  | — |  | 
O=C(C=Cc1ccccc1)NC(Cc1ccccc1)C(=O)OCCCCCCOC(=O)C(Cc1ccccc1)NC(=O)C=Cc1ccccc1 (stereo not shown) [Phe-6-CA] | — | — | Elastic | Hard | — | Brittle | Brittle
C=C(C)C(=O)N[C@@H](Cc1ccccc1)C(=O)OCCCCCCOC(=O)[C@H](Cc1ccccc1)NC(=O)C(=C)C [Phe-6-MA, dimethacrylate of bis(L-Phe)-1,6-hexanediol diester] | — | — | Elastic | Hard | — | Hard | 
